Legend:
Assay type in all cases: cell-based, human
M-HeLa = assay: MTT cytotoxicity test, M-HeLa cells; conditions: Homo sapiens, M-HeLa, 24 h incubation, tested at 1–100 µM, three independent experiments, read-out: IC50 (µM) Cancer Cell Lines M-HeLa
HuTu 80 = assay: MTT cytotoxicity test, HuTu 80 cells
Chang liver = assay: MTT cytotoxicity test, normal Chang liver cells; conditions: Homo sapiens, Chang liver, 24 h incubation, tested at 1–100 µM, three independent experiments, read-out: IC50 (µM) Normal Cell Lines Chang Liver
HuTu 80 cells [1] = assay: Cell apoptosis analysis by flow cytometry (annexin V-Alexa Fluor 647 / propidium iodide); conditions: HuTu 80, IC50/2 and IC50 concentrations, 24-h incubation
Text: Induction of apoptosis is one of the most important mechanisms of anticancer activity. The apoptosis-inducing effect in HuTu 80 cells was studied by flow cytometry using sets of annexin V binding to the apoptosis marker phosphatidylserine. On the surface of the membranes of healthy cells, phosphatidylserine is contained in a minimal amount. Therefore, the interaction of annexin V with these cells is negligible. During apoptosis, phosphatidylserine molecules appear on the cell surface and can interact with the protein. This interaction leads to an increase in the fluorescence intensity of apoptotic cells, which is recorded by a flow cytometer. The apoptosis-inducing effect was evaluated using the example of the leader compound 7r at IC50/2 and IC50 concentrations on the HuTu 80 cell line (Figure 1).
(§1) Cell Culture. HuTu 80 cells at 1 × 10^6 cells/well in a final volume of 2 mL were seeded into six-well plates.
Cell Apoptosis Analysis. […] The cells were harvested at 2000 rpm for 5 min and then washed twice with ice-cold PBS, followed by resuspension in binding buffer. Next, the samples were incubated with 5 μL of annexin V- Alexa Fluor 647 (Sigma-Aldrich, St. Louis, MO, USA) and 5 μL of propidium iodide (Sigma-Aldrich, St. Louis, MO, USA) for 15 min at room temperature in the dark. Finally, the cells were analyzed using flow cytometry (Guava easy Cyte, MERCK, Darmstadt, Germany) within 1 h. […]

HuTu 80 cells [2] = assay: Mitochondrial membrane potential by flow cytometry (JC-10); conditions: HuTu 80, IC50/2 and IC50 concentrations, 24-h incubation
Text: Violation of the functions of the mitochondria of the cell is one of the most common signs of apoptosis inherent in eukaryotic organisms. With mitochondrial dysfunction, pro-apoptotic factors are released into the cytoplasm—cytochrome c, AIF, Smac/DIABLO, endonuclease G, as well as proforms of caspases 2, 3, and 9—inducing the cascade. The release of these protein factors can be associated both with the rupture of mitochondrial membranes and with the activation of specific channels in the outer mitochondrial membrane. This usually leads to a change in the mitochondrial membrane potential (ΔΨm) due to a change in the permeability of the inner mitochondrial membrane for H+ protons. […] The principle of operation of these dyes is determined by their ability to spontaneously penetrate through the cytoplasmic membranes of cells, as well as the outer and inner membranes of mitochondria and accumulate in areas with a high concentration of protons, that is, under the inner mitochondrial membrane. This effect is accompanied by a change in the intensity of cell fluorescence, which is recorded by cytofluorimetry. […] JC-10 accumulates in the mitochondrial matrix and forms aggregates (J-aggregates) with red fluorescence in normal cells with a high mitochondrial membrane potential. […]

HuTu 80 cells [3] = assay: Detection of intracellular ROS by flow cytometry (CellROX Deep Red); conditions: for Fluorescence intensity (CellROX Deep Red, ROS production): 24 h
Text: Increased generation of reactive oxygen species (ROS) by the test compounds can also characterize the development of apoptosis along the mitochondrial pathway. Mitochondria are both a potential source and target of ROS. An increase in ROS production leads to the disruption of mitochondrial functions and, subsequently, to irreversible damage and cell death. In this regard, the effect of lead compound 7r at IC50/2 and IC50 concentrations on ROS production in HuTu 80 cells was investigated using a flow cytometry assay and the CellROX® Deep Red flow cytometry kit. […] This indicates an increase in ROS production in the presence of the test compound.
as §1
ROS generation was investigated using a flow cytometry assay and CellROX® Deep Red flow cytometry kit. For this, […] cells were harvested at 2000 rpm for 5 min and then washed twice with ice-cold PBS, followed by resuspension in 0.1 mL of medium without FBS, to which we added 0.2 μL of CellROX® Deep Red (Thermo Fisher Scientific, Waltham, MA, USA) and incubated at 37 °C for 30 min After three times washing the cells and suspending them in PBS, the production of ROS in the cells was immediately monitored using flow cytometer Guava easy Cyte, MERCK).

In the case of `Cc1ncc(CCl)c2cc(C(=O)Nc3ccc(S(=O)(=O)c4ccc(NC(=O)c5cc6c(CCl)cnc(C)c6oc5=O)cc4)cc3)c(=O)oc12` [7r, N,N′-(Sulfonylbis(4,1-phenylene))bis(5-(chloromethyl)-8-methyl-2-oxo-2H-pyrano[2,3-c]pyridine-3-carboxamide)], the IC50 (M-HeLa) is reported as 64.5 ± 4.5 µM, the IC50 (HuTu 80; Homo sapiens, HuTu80, MTT test, 24 h incubation, tested at 1–100 µM, three independent experiments, read-out: IC50 (µM) Cancer Cell Lines HuTu 80) is reported as 5.5 ± 0.4 µM and the “selectivity index, SI = IC50(Chang liver)/IC50(HuTu 80)” value (HuTu 80; normal Chang liver vs HuTu 80) is reported as 14. The IC50 (Chang liver) was 78 ± 5.9 µM, the “apoptosis-inducing effect (in words)” value (HuTu 80 cells [1]) was “apoptotic effects were registered” and the “change in mitochondrial membrane potential (in words)” value (HuTu 80 cells [2]) was “decrease in the mitochondrial membrane potential”. The “Fluorescence intensity (CellROX Deep Red, ROS production)” value (HuTu 80 cells [3]; HuTu 80, 2.8 µM (IC50/2)) was 1400, the “Fluorescence intensity (CellROX Deep Red, ROS production)” value (HuTu 80 cells [3]; HuTu 80, 5.5 µM (IC50)) was 1700 and the “ROS production vs control (in words)” value (HuTu 80 cells [3]; HuTu 80, IC50/2 and IC50 concentrations) was “significant increase”.
